As usually defined, the inhibition is the drop in the measured response relative to a control, in per cent. One may read the pIC50 as the IC50 on a negative log10 scale, so that one unit is a factor of ten. In general, pKi refers to the negative decadic logarithm of the Ki, by convention in mol/L.

pIC50, pKi: −log10 of the molar value.

For one series, the target named is T1, UGT1A9 (Homo sapiens, UniProt O60656).
T1 construct: purchased BD Gentest Corp. (Woburn, MA, USA); host or cells: baculovirus-infected insect cells
T1 sequence (O60656 26-530): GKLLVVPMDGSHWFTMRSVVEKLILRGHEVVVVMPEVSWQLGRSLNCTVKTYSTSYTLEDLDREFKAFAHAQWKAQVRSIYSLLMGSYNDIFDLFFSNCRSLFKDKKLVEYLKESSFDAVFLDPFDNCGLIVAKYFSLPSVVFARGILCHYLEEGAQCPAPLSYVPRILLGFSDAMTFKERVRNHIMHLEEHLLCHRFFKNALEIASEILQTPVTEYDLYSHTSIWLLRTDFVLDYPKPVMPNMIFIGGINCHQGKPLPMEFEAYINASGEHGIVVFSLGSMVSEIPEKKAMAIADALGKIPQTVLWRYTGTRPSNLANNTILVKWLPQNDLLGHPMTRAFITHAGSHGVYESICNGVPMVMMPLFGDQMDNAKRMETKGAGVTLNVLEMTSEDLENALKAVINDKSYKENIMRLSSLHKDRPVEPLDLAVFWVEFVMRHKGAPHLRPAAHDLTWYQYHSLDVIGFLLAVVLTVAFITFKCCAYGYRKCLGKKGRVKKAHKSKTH
Description: Inhibition of recombinant UGT-catalyzed 4-MU glucuronidation. Type of series: biochemical. The conditions noted are these: for inhibition at 30 min, 100 µM: human, pH 7.4, probe 4-methylumbelliferone (4-MU), 30 μM, 100 μM compound, 4-MU probe substrate, negative = activation. The protocol:
(§1) Sigma-Aldrich (St Louis, MO, USA) provided the following constituents in the incubation mixture: 4-methylumbelliferone (4-MU), 4-methylumbelliferone-β-D-glucuronide (4-MUG), Tris-HCl, 7-hydroxycoumarin, and uridine-diphosphoglucuronic acid (UDPGA) (trisodium salt). All other compounds were of high-performance liquid chromatography (HPLC) grade or of the highest grade commercially available. For enzyme sources, recombinant UGT isoforms expressed in baculovirus-infected insect cells were purchased from BD Gentest Corp. (Woburn, MA, USA), including UGT1A1, 1A3, 1A6, 1A7, 1A8, 1A9, 1A10, 2B4, 2B7, 2B15, and 2B17.
(§2) 4-MU, a nonspecific probe substrate for all the UGT isoforms, was employed to investigate the inhibition of MEF and NIR towards the activity of UGT isoforms. The incubation and analytical methods have been previously described. […] MEF and NIR were dissolved in the DMSO to make a stock solution of 20 mM, and various concentrations of working solutions were prepared through dilution with DMSO. 4-MU was used as a non-selective substrate of UGTs. There was a 5-min pre-incubation step at 37 °C before the reaction was initiated by the addition of UDPGA. 4-MU and inhibitors were previously dissolved in DMSO, and the total concentration of DMSO was 1%. The reactions were continued at 37 °C for 120 min for UGT1A1, UGT1A3, UGT1A10, UGT2B4, UGT2B7, UGT2B15 and UGT2B17, 30 min for UGT1A6, UGT1A7, UGT1A8, and UGT1A9, respectively. Reactions were terminated by the addition of 100 μL acetonitrile with 7-hydroxycoumarin (100 μM) as internal standard. The incubation mixtures were then centrifuged at 12,000 r/min for 10 min. 2 μL supernatant was injected into the UPLC system for analysis. An ACQUITY UPLC System (Waters, Milford, MA, USA) equipped with UV detector was used to analyze the samples, and the separation of all the compounds were carried out using a ACQUITY UPLC® BEH C18 (2.1 × 100 mm, 1.7 μm Waters) at a flow rate of 0.2 mL/min and UV detector at 316 nm. The mobile phase was consisted of ultrapure water containing 0.5% formic acid (A) and acetonitrile (B). The following gradient condition was used: 0–3.5 min, 10–65% B; 3.5–4.0 min, 65% B; 4.0–9.0 min, 10% B. To calculate the standard curve 0.1–100 μM of 4-MUG was used through drawing the peak area ration of 4-MUG/internal standard towards the concentration range of 4-MUG. The curve was linear over this concentration range, with an r^2 value > 0.99.
(§3) The inhibition type and Kinetics were determined for the inhibition of NTR towards UGT1A3, UGT1A7 and UGT1A9. The glucuronidation velocity of 4-MU was determined at multiple concentrations of 4-MU and NTR. Dixon and Lineweaver–Burk plots were employed to determine the inhibition type, and the second plot of the slopes from the Lineweaver–Burk plot versus the compound concentrations was utilized to calculate the Ki value. The determination of IC50 was calculated using Probit analysis in SPSS11.5 (SPSS, Chicago, IL, USA). The Student’s t-test was adopted at a significance level of p < 0.05 to determine statistically significant differences among experimental groups.

The next series has as its target T2, UGT1A10 (Homo sapiens, UniProt Q9HAW8).
T2 construct: purchased BD Gentest Corp. (Woburn, MA, USA); host or cells: baculovirus-infected insect cells
T2 sequence (Q9HAW8 26-530): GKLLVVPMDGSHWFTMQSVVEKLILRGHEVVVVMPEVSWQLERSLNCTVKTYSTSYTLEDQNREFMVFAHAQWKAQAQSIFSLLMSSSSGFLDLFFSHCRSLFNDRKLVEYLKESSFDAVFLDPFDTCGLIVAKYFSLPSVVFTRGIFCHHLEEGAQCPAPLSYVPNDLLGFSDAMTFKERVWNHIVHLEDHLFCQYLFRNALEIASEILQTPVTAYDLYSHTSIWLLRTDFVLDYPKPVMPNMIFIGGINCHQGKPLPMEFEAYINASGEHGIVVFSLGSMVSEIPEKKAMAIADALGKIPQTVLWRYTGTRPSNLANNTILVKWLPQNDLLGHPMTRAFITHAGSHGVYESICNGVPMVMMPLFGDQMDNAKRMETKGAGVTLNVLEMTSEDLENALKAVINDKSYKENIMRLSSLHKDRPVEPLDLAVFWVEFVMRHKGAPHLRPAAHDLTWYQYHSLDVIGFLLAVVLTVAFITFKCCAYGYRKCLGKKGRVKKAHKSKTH
The description is as above. Type of series: biochemical. The conditions noted are these: pH 7.4, probe 4-methylumbelliferone (4-MU), 30 μM, 100 μM compound, 4-MU probe substrate, negative = activation. The protocol: as §1, §2, §3

Regarding `O=c1c2cc(O)c(O)cc2oc2cc(O)c([C@@H]3O[C@H](CO)[C@@H](O)[C@H](O)[C@H]3O)c(O)c12` [MGF, 1,3,6,7-tetrahydroxyxanthone-C-2-β-D-glucoside], the inhibition at 30 min, 100 µM on UGT1A9 is 8.2%. Besides, the inhibition at 120 min, 100 µM on UGT1A10 was -86.4%.

With `O=c1c2cc(O)c(O)cc2oc2cc(O)cc(O)c12` [NTR, 1,3,6,7-tetrahydroxyxanthone], at UGT1A9 (4-MU glucuronidation, Probit analysis, read-out: IC50 towards UGT1A9), the pIC50 is 4.91. In addition, at UGT1A9 (Dixon plot and Lineweaver-Burk plot), the “inhibition type towards UGT1A9” value is on record as “competitively inhibited”. Besides, on UGT1A9, the inhibition at 30 min, 100 µM was 94.2%. The pKi at UGT1A9 (second plot of Lineweaver-Burk slopes, read-out: inhibition constant (Ki) towards UGT1A9) was 5.55. In addition, at UGT1A10, the inhibition at 120 min, 100 µM is -272%.

These data come from paper PMC6152678, “In Vitro Comparative Study of the Inhibitory Effects of Mangiferin and Its Aglycone Norathyriol towards UDP-Glucuronosyl Transferase (UGT) Isoforms” (Molecules : A Journal of Synthetic Chemistry and Natural …, 2017).
